Results reported in patent US20070149404A1, “Microbicidal compositions” (BASF AKTIENGESELLSCHAFT, priority 2003, published 2007).

Tests used:
[1] = system: Micrococcus luteus; test: Intrinsic activity, microtitre plate method, ML; type: cell-based; design: key: rating 0 = no activity to 5 = biostatic, may be biocide
Experimental: (§1) The chemistries were tested for their activity against a range of organisms via a microtitre plate method. The test organisms were: • ML—Micrococcus luteus • SA—Staphylococcus aureus • EC—Escherichia coli • PA—Pseudomonas aeruginosa • CF—Citrobacter freundii • PM—Proteus mirabilis • CA—Candida albicans • SC—Saccharomyces cerevisiae • AN—Aspergillus niger • PF—Penicillium funiculosum • AA—Alternaria alternata
(§2) Using the following rating scale: • 0=no activity • 1=minimal inhibition • 2=inhibition • 3=clear inhibition • 4=clear inhibition biostatic, may be biocide activity • 5=biostatic, may be biocide activity
(§3) Readings of 4 and possibly 3 were considered to be valid for biocidal applications.

[2] = system: Staphylococcus aureus; test: Intrinsic activity, microtitre plate method, SA; type: cell-based; design: key: 0 = no activity to 5 = biostatic, may be biocide activity
Experimental: as §1, §2, §3

[3] = system: Escherichia coli; test: Intrinsic activity, microtitre plate method, EC; type: cell-based; design: key: rating 0 = no activity to 5 = biostatic, may be biocide
Experimental: as §1, §2, §3

[4] = system: Pseudomonas aeruginosa; test: Intrinsic activity, microtitre plate method, PA; type: cell-based; design: key: rating 0 = no activity to 5 = biostatic, may be biocide
Experimental: as §1, §2, §3

[5] = system: Citrobacter freundii; test: Intrinsic activity, microtitre plate method, CF; type: cell-based; design: key: rating 0 = no activity to 5 = biostatic, may be biocide
Experimental: as §1, §2, §3

[6] = system: Proteus mirabilis; test: Intrinsic activity, microtitre plate method, PM; type: cell-based; design: key: rating 0 = no activity to 5 = biostatic, may be biocide
Experimental: as §1, §2, §3

[7] = system: Bacteria; test: Intrinsic activity, microtitre plate method, mean score over bacteria; type: cell-based, ML, SA, EC, PA, CF, PM; settings: performance against organisms/no of organisms, 0 to <3 poor, >3 inhibition, >4 biostasis, biocidal activity
Experimental: as §1, §2, §3

[8] = system: Candida albicans; test: Intrinsic activity, microtitre plate method, CA; type: cell-based; design: key: rating 0 = no activity to 5 = biostatic, may be biocide
Experimental: as §1, §2, §3

[9] = system: Saccharomyces cerevisiae; test: Intrinsic activity, microtitre plate method, SC; type: cell-based; design: key: rating 0 = no activity to 5 = biostatic, may be biocide
Experimental: as §1, §2, §3

[10] = system: Aspergillus niger; test: Intrinsic activity, microtitre plate method, AN; type: cell-based; design: key: rating 0 = no activity to 5 = biostatic, may be biocide
Experimental: as §1, §2, §3

[11] = system: Penicillium funiculosum; test: Intrinsic activity, microtitre plate method, PF; type: cell-based; design: key: rating 0 = no activity to 5 = biostatic, may be biocide
Experimental: as §1, §2, §3

[12] = system: Alternaria alternata; test: Intrinsic activity, microtitre plate method, AA; type: cell-based; design: key: rating 0 = no activity to 5 = biostatic, may be biocide
Experimental: as §1, §2, §3

[13] = system: Fungi; test: Intrinsic activity, microtitre plate method, mean score over fungi; type: cell-based, CA, SC, AN, PF, AA; settings: performance against organisms/no of organisms, 0 to <3 poor, >3 inhibition, >4 biostasis, biocidal activity
Experimental: as §1, §2, §3

[14] = Solubility in water at room temperature
[15] = system: algae; test: Efficacy against algal growth on painted plaster surface (BBA MOAT 33); type: cell-based; settings: 0.5% in paint; for MEAN ALGAL GROWTH RATING 28 days / MEAN ALGAL GROWTH RATING 56 days / % Improved after 56 days (algal growth): painted plaster; for MEAN ALGAL GROWTH RATING 28 days / MEAN ALGAL GROWTH RATING 56 days: leached 72 hours, mean of ratings 0-5; for MEAN ALGAL GROWTH RATING 28 days: 28 days after inoculation; for MEAN ALGAL GROWTH RATING 56 days: 56 days after inoculation; for % Improved after 56 days (algal growth): versus unpreserved paint
Experimental: (§4) Testing was performed according to the BS3900 G6 and BBA MOAT 33 methods for evaluation versus fungi and algae, respectively. The methods involve painting a substrate panel with the coating and leaching under running water for 72 hours. The substrates are incubated for 56 days after being inoculated with fungi or algae. Performance is judged by comparing with suitable control samples ie without biocide, a positive control and for fungi with substrate panels that have not been leached.
(§5) Performance rating on painted test substrates (Score of 0, 1 and 2 is considered as a pass) • 0=no growth • 1=trace of growth • 2=growth on 1-10% of test face • 3=growth on 10-30% of test face • 4=growth on 30-70% of test face
(§6) 5=growth on 70-100% of test face.

[16] = system: fungi; test: Efficacy against fungal growth on painted plaster surface (BS3900 G6); type: cell-based; settings: 0.5% in paint; for MEAN FUNGAL GROWTH RATING - PLASTER SUBSTRATE 28 days leached / MEAN FUNGAL GROWTH RATING - PLASTER SUBSTRATE 56 days leached: constant running water for 72 hours; for MEAN FUNGAL GROWTH RATING - PLASTER SUBSTRATE 28 days leached / MEAN FUNGAL GROWTH RATING - PLASTER SUBSTRATE 56 days leached / MEAN FUNGAL GROWTH RATING - PLASTER SUBSTRATE 28 days as applied / MEAN FUNGAL GROWTH RATING - PLASTER SUBSTRATE 56 days as applied: mean of ratings 0-5; for % Improved After 56 days leached (fungal, plaster): leached 72 hours; for % Improved After 56 days leached (fungal, plaster) / % Improved After 56 days as applied (fungal, plaster): versus unpreserved paint; for MEAN FUNGAL GROWTH RATING - PLASTER SUBSTRATE 28 days as applied / MEAN FUNGAL GROWTH RATING - PLASTER SUBSTRATE 56 days as applied: no leaching with water; for % Improved After 56 days as applied (fungal, plaster): no leaching
Experimental: as §4, with “The substrates are incubated for 56 days after being inoculated with fungi or algae.” left out
as §5, §6

[17] = system: fungi; test: Efficacy against fungal growth on painted wooden surface (BS3900 G6); type: cell-based; settings: 0.5% in paint
Experimental: as §4, §5, §6

[18] = system: test bacteria and fungi; test: Intrinsic activity against bacteria and fungi, microtitre plate method, summary in words; type: cell-based; settings: at both concentrations (1000 and 500 ppm a.i.)
Experimental: as §1, §2, §3

Row | Compound | ML rating ([1]; 500 ppm a.i.) | ML rating ([1]; 1000 ppm a.i.) | SA rating ([2]; 500 ppm a.i.) | SA rating ([2]; 1000 ppm a.i.) | EC rating ([3]; 500 ppm a.i.) | EC rating ([3]; 1000 ppm a.i.) | PA rating ([4]; 500 ppm a.i.) | PA rating ([4]; 1000 ppm a.i.) | CF rating ([5]; 500 ppm a.i.) | CF rating ([5]; 1000 ppm a.i.) | PM rating ([6]; 500 ppm a.i.) | PM rating ([6]; 1000 ppm a.i.) | Bacteria Mean Score ([7]; 500 ppm a.i.) | Bacteria Mean Score ([7]; 1000 ppm a.i.) | CA rating ([8]; 500 ppm a.i.) | CA rating ([8]; 1000 ppm a.i.) | SC rating ([9]; 500 ppm a.i.) | SC rating ([9]; 1000 ppm a.i.) | AN rating ([10]; 500 ppm a.i.) | Aq. Solubility (ppm) [14] [ppm] | other results
1 | O=C(O)COc1ccc(Cl)cc1Cl [2,4-D, 2,4-Dichlorphenoxy acetic acid] | 2 | 5 | 3 | 3 | 0 | 3 | 0 | 3 | 0 | 5 | 1 | 2 | 1.0 | 3.5 | 5 | 5 | 1 | 3 | 0 | 600 | AN rating ([10]; 1000 ppm a.i.): 5; PF rating ([11]; 500 ppm a.i.): 3; PF rating ([11]; 1000 ppm a.i.): 5; AA rating ([12]; 500 ppm a.i.): 5; AA rating ([12]; 1000 ppm a.i.): 5; Fungi Mean Score ([13]; 500 ppm a.i.): 2.8; Fungi Mean Score ([13]; 1000 ppm a.i.): 4.6
2 | CC(Cc1ccc(C(C)(C)C)cc1)CN1C[C@@H](C)O[C@@H](C)C1 (stereo partly drawn) [Fenpropimorph, 4-[2-Methyl-3-(p-tert.butyl-phenyl)-propyl]-2,6-cis-dimethylmorpholin] | 0 | 2 | 0 | 0 | 0 | 0 | 0 | 0 | 0 | 0 | 0 | 0 | 0.0 | 0.3 | 5 | 5 | 5 | 5 | 5 |  | MEAN ALGAL GROWTH RATING 28 days [15]: 2 (2=growth on 1-10% of test face); MEAN ALGAL GROWTH RATING 56 days [15]: 3 (3=growth on 10-30% of test face); % Improved after 56 days (algal growth) [15]: 25.0%; Improvement against algal growth on the plaster surface [15]: exhibited an improvement; Improvement against fungal growth on the plaster surface ([16]; as applied or after leaching): exhibited an improvement; MEAN FUNGAL GROWTH RATING - PLASTER SUBSTRATE 28 days leached [16]: 3 (3=growth on 10-30% of test face); MEAN FUNGAL GROWTH RATING - PLASTER SUBSTRATE 56 days leached [16]: 3 (3=growth on 10-30% of test face); % Improved After 56 days leached (fungal, plaster) [16]: 14%; MEAN FUNGAL GROWTH RATING - PLASTER SUBSTRATE 28 days as applied [16]: 4 (4=growth on 30-70% of test face); MEAN FUNGAL GROWTH RATING - PLASTER SUBSTRATE 56 days as applied [16]: 4 (4=growth on 30-70% of test face); % Improved After 56 days as applied (fungal, plaster) [16]: 20%; Improvement against fungal growth on the wood surface [17]: only showed marginal improvement; AN rating ([10]; 1000 ppm a.i.): 5; PF rating ([11]; 500 ppm a.i.): 5; PF rating ([11]; 1000 ppm a.i.): 5; AA rating ([12]; 500 ppm a.i.): 5; AA rating ([12]; 1000 ppm a.i.): 5; Fungi Mean Score ([13]; 500 ppm a.i.): 5.0; Fungi Mean Score ([13]; 1000 ppm a.i.): 5.0; Spectrum of activity [18]: only display antifungal activity
3 | O=C(Nc1ccc(F)cc1)c1cccc(Oc2cccc(C(F)(F)F)c2)n1 [Picolinafen] |  |  |  |  |  |  |  |  |  |  |  |  |  |  |  |  |  |  |  | 0.004 | MEAN ALGAL GROWTH RATING 28 days [15]: 1.5; MEAN ALGAL GROWTH RATING 56 days [15]: 2.5; % Improved after 56 days (algal growth) [15]: 37.5%; Improvement against algal growth on the plaster surface [15]: exhibited an improvement; MEAN FUNGAL GROWTH RATING - PLASTER SUBSTRATE 28 days leached [16]: 3 (3=growth on 10-30% of test face); MEAN FUNGAL GROWTH RATING - PLASTER SUBSTRATE 56 days leached [16]: 3.5; % Improved After 56 days leached (fungal, plaster) [16]: 0%; MEAN FUNGAL GROWTH RATING - PLASTER SUBSTRATE 28 days as applied [16]: 4.5; MEAN FUNGAL GROWTH RATING - PLASTER SUBSTRATE 56 days as applied [16]: 5 (5=growth on 70-100% of test face); % Improved After 56 days as applied (fungal, plaster) [16]: 0%; Improvement against fungal growth on the wood surface [17]: only showed marginal improvement
4 | Metiram |  |  |  |  |  |  |  |  |  |  |  |  |  |  |  |  |  |  |  | 2.7 | 
